Data as given in patent US20230382940A1, “ANTIVIRAL COMPOUNDS AND METHODS OF MAKING AND USING THE SAME” (Gilead Sciences, Inc., priority 2022, published 2023).

Legend:
[1] = GI S9 stability, cyno, Example Y; format: in vitro ADME; conditions: cynomolgus monkey, pooled intestinal S9 fractions; cyno intestinal S9, 1.0 mg/mL protein, 2 μM compound, pH 7.4; read-out: GIS9 Cyno T½ (per Ex. Y)
Procedure: (§1) Example Y: GI S9 Stability Data
(§2) Stock solutions of test compounds in dimethyl sulfoxide (DMSO) having a final concentration of 10 mM were prepared and used in all experiments. Sekisui XenoTech (Kansas City, KS) provided pooled intestinal S9 fractions. All other chemicals were purchased from Sigma-Aldrich (St. Louis, MO) or VWR (West Chester, PA). Internal Standard/Quench (IS/Q) used to stop reactions was 100 nM labetalol in (by volume) methanol (10%) and acetonitrile (90%).
(§3) Stability in Intestinal S9 Fractions: Duplicate aliquots of test compound or positive control substrate were added to S9 stock diluted with phosphate buffered saline (137 mM NaCl, 2.7 mM KCl, 10 mM phosphate buffer), pH 7.4, to obtain a protein concentration of 1.0 mg/mL. The metabolic reactions were initiated by the addition of the substrates to the S9 reaction mixture to a final concentration of 2 μM. At 0, 10, 20, 30, 60 and 120 min, 25 μL aliquots of the reaction mixture were transferred to plates containing 225 μl of IS/Q solution. After quenching, the plates were centrifuged at 3000×g for 30 minutes. 150 μL aliquots of each supernatant were dried down then reconstituted with 300 μL water. Aliquots (10 μL) of the prepared samples were analyzed on a Thermo Q-Exactive mass spectrometer as described below.
(§4) Liquid Chromatography—Mass Spectrometry: Quantification of test compounds and control substrate was performed by analyte/internal standard peak area ratio (PAR) values measured on a Thermo Q-Exactive mass spectrometer coupled to a Dionex UltiMate 3000 HPLC with a Leap Technologies HTC PAL autosampler. The column used for analysis was a Waters Acquity BEH C18 (1.7 μm particle size, 2.1×50 mm). Mobile phase A consisted of 0.1% (v/v) formic acid in water. Mobile phase B consisted of 0.1% (v/v) formic acid in acetonitrile. Elution of analytes was achieved by a series of linear gradients varying the proportions of A and B. The mass spectrometer was calibrated on a weekly basis and mass tolerance of 5 ppm was used.
(§5) Metabolic stabilities in S9 fractions were determined by measuring the rates of disappearance of test compound and positive control substrate.
(§6) Data (% of substrate remaining) were plotted on a semi-log scale and fitted using an exponential decline model:
(§7) Ct=C0×e^−ln2/T1/2×t • Where Ct—% of substrate remaining at time=t; C0—% of substrate remaining at time=0; t—time; T1/2—half-life. • The Half-life (T1/2) is determined by the following equation: […]
(§8) Assuming a first-order reaction, the slope (k) is extrapolated from the aforementioned plotted data.

[2] = GI S9 stability, dog, Example Y; format: in vitro ADME; conditions: dog intestinal S9, 1.0 mg/mL protein, 2 μM compound, pH 7.4; for half-life at 2 μM: pooled intestinal S9 fractions, read-out: GIS9 DOG T½ (per Ex. Y)
Procedure: as §1, §2, §3, §4, §5, §6, §7, §8

Row | SMILES | half-life at 2 μM [1] | half-life at 2 μM [2] | GIS9 DOG T½ (per Ex. Y) [2]
1 | N#C[C@]1(COC(=O)OC2CCCC2)O[C@@H](c2ccc3c(N)ncnn23)[C@H](O)[C@@H]1O [Compound 1, ((2R,3S,4R,5S)-5-(4-aminopyrrolo[2,1-f][1,2,4]triazin-7-yl)-2-cyano-3,4-dihydroxytetrahydrofuran-2-yl)methyl cyclopentyl carbonate] | 11 min | 256 min | –
2 | CC(C)(C)COC(=O)OC[C@@]1(C#N)O[C@@H](c2ccc3c(N)ncnn23)[C@H](O)[C@@H]1O [Compound 2, ((2R,3S,4R,5S)-5-(4-aminopyrrolo[2,1-f][1,2,4]triazin-7-yl)-2-cyano-3,4-dihydroxytetrahydrofuran-2-yl)methyl neopentyl carbonate] | 4 min | 162 min | –
3 | CC[C@H](C)OC(=O)OC[C@@]1(C#N)O[C@@H](c2ccc3c(N)ncnn23)[C@H](O)[C@@H]1O [Compound 4, ((2R,3S,4R,5S)-5-(4-aminopyrrolo[2,1-f][1,2,4]triazin-7-yl)-2-cyano-3,4-dihydroxytetrahydrofuran-2-yl)methyl ((S)-sec-butyl) carbonate] | 22 min | 462 min | –
4 | COC(=O)OC[C@@]1(C#N)O[C@@H](c2ccc3c(N)ncnn23)[C@H](O)[C@@H]1O [Compound 6, ((2R,3S,4R,5S)-5-(4-aminopyrrolo[2,1-f][1,2,4]triazin-7-yl)-2-cyano-3,4-dihydroxytetrahydrofuran-2-yl)methyl methyl carbonate] | 38 min | – | 789 min
5 | CC(C)COC(=O)OC[C@@]1(C#N)O[C@@H](c2ccc3c(N)ncnn23)[C@H](O)[C@@H]1O [Compound 8, ((2R,3S,4R,5S)-5-(4-aminopyrrolo[2,1-f][1,2,4]triazin-7-yl)-2-cyano-3,4-dihydroxytetrahydrofuran-2-yl)methyl isobutyl carbonate] | 8 min | 311 min | –
6 | CCCOC(=O)OC[C@@]1(C#N)O[C@@H](c2ccc3c(N)ncnn23)[C@H](O)[C@@H]1O [Compound 9, ((2R,3S,4R,5S)-5-(4-aminopyrrolo[2,1-f][1,2,4]triazin-7-yl)-2-cyano-3,4-dihydroxytetrahydrofuran-2-yl)methyl propyl carbonate] | 19 min | 156 min | –
7 | CC[C@@H](C)OC(=O)OC[C@@]1(C#N)O[C@@H](c2ccc3c(N)ncnn23)[C@H](O)[C@@H]1O [Compound 10, ((2R,3S,4R,5S)-5-(4-aminopyrrolo[2,1-f][1,2,4]triazin-7-yl)-2-cyano-3,4-dihydroxytetrahydrofuran-2-yl)methyl ((R)-sec-butyl) carbonate] | 9 min | – | 789 min
8 | CC(C)OC(=O)OC[C@@]1(C#N)O[C@@H](c2ccc3c(N)ncnn23)[C@H](O)[C@@H]1O [Compound 11, ((2R,3S,4R,5S)-5-(4-aminopyrrolo[2,1-f][1,2,4]triazin-7-yl)-2-cyano-3,4-dihydroxytetrahydrofuran-2-yl)methyl isopropyl carbonate] | 35 min | – | 789 min
9 | N#C[C@]1(COC(=O)OC2CCOCC2)O[C@@H](c2ccc3c(N)ncnn23)[C@H](O)[C@@H]1O [Compound 12, ((2R,3S,4R,5S)-5-(4-aminopyrrolo[2,1-f][1,2,4]triazin-7-yl)-2-cyano-3,4-dihydroxytetrahydrofuran-2-yl)methyl (tetrahydro-2H-pyran-4-yl) carbonate] | 274 min | – | –
10 | CC(C)(C)OC(=O)OC[C@@]1(C#N)O[C@@H](c2ccc3c(N)ncnn23)[C@H](O)[C@@H]1O [Compound 13, ((2R,3S,4R,5S)-5-(4-aminopyrrolo[2,1-f][1,2,4]triazin-7-yl)-2-cyano-3,4-dihydroxytetrahydrofuran-2-yl)methyl tert-butyl carbonate] | 72 min | 96 min | –
11 | CCC(CC)OC(=O)OC[C@@]1(C#N)O[C@@H](c2ccc3c(N)ncnn23)[C@H](O)[C@@H]1O [Compound 14, ((2R,3S,4R,5S)-5-(4-aminopyrrolo[2,1-f][1,2,4]triazin-7-yl)-2-cyano-3,4-dihydroxytetrahydrofuran-2-yl)methyl pentan-3-yl carbonate] | 8 min | 534 min | –
12 | CC(C)COC(=O)OC[C@@]1(C#N)O[C@@H](c2ccc3c(N)ncnn23)[C@@H]2OC(=O)O[C@@H]21 [Compound 15, ((3aS,4R,6S,6aS)-6-(4-aminopyrrolo[2,1-f][1,2,4]triazin-7-yl)-4-cyano-2-oxotetrahydrofuro[3,4-d][1,3]dioxol-4-yl)methyl isobutyl carbonate] | 2 min | 12 min | –
13 | N#C[C@]1(COC(=O)O[C@@H]2CCOC2)O[C@@H](c2ccc3c(N)ncnn23)[C@H](O)[C@@H]1O [Compound 24, ((2R,3S,4R,5S)-5-(4-aminopyrrolo[2,1-f][1,2,4]triazin-7-yl)-2-cyano-3,4-dihydroxytetrahydrofuran-2-yl)methyl ((R)-tetrahydrofuran-3-yl) carbonate] | 147 min | – | 789 min
14 | N#C[C@]1(COC(=O)O[C@H]2CCOC2)O[C@@H](c2ccc3c(N)ncnn23)[C@H](O)[C@@H]1O [Compound 33, ((2R,3S,4R,5S)-5-(4-aminopyrrolo[2,1-f][1,2,4]triazin-7-yl)-2-cyano-3,4-dihydroxytetrahydrofuran-2-yl)methyl ((S)-tetrahydrofuran-3-yl) carbonate] | 163 min | – | 789 min
